Data from patent US10251408B2, “Catechin function enhancement method” (KYUSHU UNIVERSITY, NATIONAL UNIVERSITY CORPORATION, priority 2014, dated 2019).

Tests used:
[1] = tested on: tail suspension test-induced disuse amyotrophy in mice; test: Tail suspension test-induced disuse amyotrophy (quadriceps femoris weight); type: in vivo, mouse; details: C57BL/6J mice; 5 mg/kg intragastric once a day; tail suspension for 10 days from day 7; FIG. 4
Description: Male C57BL/6J mice at 12 weeks of age were divided into 5 groups such that the average body weight was equal in all groups, i.e., a GR (ground) group, a TS (tail suspension) group, an EGCG group, an eriodictyol group, and an EGCG+eriodictyol group. From the beginning of grouping, the GR and TS groups received physiological saline, the EGCG group received EGCG and the eriodictyol group received eriodictyol (5 mg/kg) by intragastric administration, while the EGCG+eriodictyol group received EGCG and eriodictyol (5 mg/kg) by intragastric administration through a sonde. For 7 days from the beginning of grouping, all the groups were kept under normal conditions, and the TS, EGCG, eriodictyol, and EGCG+eriodictyol groups were then subjected to a tail suspension test. After the tail suspension test for 10 days (at 17 days after initiation of the experiment), all the mice were sacrificed by abdominal aortic puncture under isoflurane anesthesia, and the quadriceps femoris was excised from each mouse and measured for its weight. Each sample was administered daily throughout the experimental period. […] At 10 days after starting the tail suspension test, the mice were sacrificed by abdominal aortic puncture under isoflurane anesthesia, and the quadriceps femoris was excised from each mouse and measured for its weight.

MCP-1 = test: Fat tissue MCP-1 mRNA by real-time PCR in HF/HS diet-fed mice; type: in vivo, mouse; details: C57BL/6J mice; Yabukita 0.2% and/or eriodictyol 0.45 g/kg diet; 8 weeks; FIG. 5
From the text: Male C57BL/6J mice at 12 weeks of age were preliminarily kept for 1 week and then divided into 5 groups such that the average body weight was equal in all groups, i.e., a control (AIN-93G-based diet) group, a HF/HS (high-fat high-sucrose diet) group, a Yabukita (0.2%) (HF/HS+Yabukita) group, an eriodictyol (HF/HS+eriodictyol) group, and a Yabukita+eriodictyol (HF/HS+Yabukita+eriodictyol) group. A feed supplemented with Yabukita (0.2%) and eriodictyol (0.45 g/kg diet) was given to the mice. The feed was given in an amount of 4 g/day and the mice were kept for 8 weeks under ad libitum drinking conditions. After being fasted for 16 hours, the mice were sacrificed by abdominal aortic puncture under isoflurane anesthesia. The collected blood samples were allowed to stand at 37° C. for 2 hours to cause coagulation and then centrifuged at 4° C. at 2000×g for 15 minutes to collect serum fractions. The values of serum total cholesterol and LDL were measured. […] Yabukita and eriodictyol were examined for their effect on obesity in high-fat high-sucrose diet-fed obese model mice. […] After being measured for their body weight, the mice were fasted for 16 hours and then sacrificed by abdominal aortic puncture under isoflurane anesthesia. […] The values of serum total cholesterol and LDL were measured.

[2] = tested on: Human multiple myeloma cell line U266; test: Anticancer effect, viable cells by trypan blue assay (24-well plates, FIG. 14-19); type: cell-based; details: 5 μM each, 96 hours
Description: Human multiple myeloma cell line U266 was subcultured and maintained in RPMI 1640 medium supplemented with 10% fetal bovine serum (FCS) under conditions of 37° C. and water vapor-saturated 5% CO2. The cells were maintained in the logarithmic growth phase. The RPMI 1640 medium used for culture was prepared as follows: per liter of ultrapure water, RPMI 1640 medium (10.4 g), HEPES (2.38 g), injectable penicillin G potassium (100,000 units), streptomycin sulfate injectable (100 mg) and NaHCO3 (2.0 g) were suspended and then filter-sterilized. Then, the RPMI 1640 medium was supplemented with FCS and used for cell culture. Per liter of ultrapure water, NaCl (8.0 g), KCl (0.2 g), Na2HPO4 (1.15 g) and KH2PO4 (0.2 g) were dissolved to prepare PBS, which was then sterilized in an autoclave.
Eriodictyol and structural analogs thereof, i.e., naringenin and hesperetin, as well as glycosides thereof, i.e., eriocitrin, naringin and hesperidin were each adjusted to 5 mM with 100% dimethyl sulfoxide (DMSO) and stored at −30° C. EGCG and (−)-gallocatechin gallate (GCG) were each adjusted to 5 mM with ultrapure water and stored at −30° C. EGCG 3″Me was adjusted to 5 mM with 10% DMSO dH2O and stored at −30° C.
U266 adjusted to 5×10^4 cells/mL in RPMI 1640 containing 1% FCS, SOD (5 U/mL) and catalase (200 U/mL) was seeded in 24-well plates and cultured for 96 hours in the presence of EGCG and analogs thereof or eriodictyol and analogs thereof added at a final concentration of 5 μM each. After culture, viable cells were counted by trypan blue assay.
For statistical processing of the experimental results, Student's test was used and P<0.05 was considered statistically significant in comparison with control data in the vehicle group.

SMILES: O=C1C[C@@H](c2ccc(O)c(O)c2)Oc2cc(O)cc(O)c21 [eriodictyol]
- effect on amyotrophy (quadriceps femoris weight) [1]: no effect on amyotrophy
- high-fat high-sucrose diet-induced increase in fat tissue MCP-1 expression level (mRNA) (MCP-1): no effect
- enhancement of the anticancer effect (viable cells) of EGCG ([2]; combined with EGCG): remarkably enhance the anticancer effect
- enhancement of the anticancer effect (viable cells) of EGCG 3″Me ([2]; combined with EGCG 3″Me): remarkably enhance the anticancer effect
- enhancement of the anticancer effect (viable cells) of GCG ([2]; combined with GCG (gallocatechin gallate)): remarkably enhance the anticancer effect
